In patent US4477443A, “Tylosin derivatives, their preparation and pharmaceutical compositions containing them” (Zaidan Hojin Biselbutsu Kagaku Kenkyu Kai (Microbial …, priority 1981, dated 1984) one finds MIC data, which are given here for four molecules.

≈ marks a conversion by molar mass, not a printed value. Like-named read-outs stand apart in the source and are kept apart here.

Type in all cases: cell-based
The subject of one test is Staph. aureus 193. As to the kind of experiment: antimicrobial activity (MIC), Table I. Conditions: Staphylococcus aureus; Staph. aureus 193; read-out: MIC.
The next test has as its system Staph. aureus 209 P. As to the kind of experiment: antimicrobial activity (MIC), Table I. Conditions: Staphylococcus aureus; Staph. aureus 209 P; read-out: MIC.
The test system of a further test is Staph. aureus MS 9861. Nature of the test: antimicrobial activity (MIC), Table I. Conditions: Staphylococcus aureus, MS9861; Staph. aureus MS 9861; read-out: MIC.
A further test concerns Sarcina lutea PCI 1001. Nature of the test: antimicrobial activity (MIC), Table I. Conditions: Micrococcus luteus, PCI1001; Sarcina lutea PCI 1001; read-out: MIC.
In a further test the test system is B. subtilis NRRL B-558. As to the kind of experiment: antimicrobial activity (MIC), Table I. Conditions: Bacillus subtilis, NRRLB558; B. subtilis NRRL B-558; read-out: MIC.
For a further test, the system named is Coryn. bovis 1810. Nature of the test: antimicrobial activity (MIC), Table I. Conditions: Corynebacterium bovis; Coryn. bovis 1810; read-out: MIC.
The test system of a further test is E. coli NIHJ. As to the kind of experiment: antimicrobial activity (MIC), Table I. Conditions: Escherichia coli; E. coli NIHJ; read-out: MIC.
Another test concerns E. coli K-12. As to the kind of experiment: antimicrobial activity (MIC), Table I. Conditions: Escherichia coli, K12; E. coli K-12; read-out: MIC.
In a further test the test system is E. coli K-12 R-5. As to the kind of experiment: antimicrobial activity (MIC), Table I. Conditions: Escherichia coli, K12R5; E. coli K-12 R-5; read-out: MIC.
The next test concerns E. coli K-12 ML 1410. Nature of the test: antimicrobial activity (MIC), Table I. Conditions: Escherichia coli, K12ML1410.
The test system of another test is E. coli K-12 LA 290 R 55. As to the kind of experiment: antimicrobial activity (MIC), Table I. Conditions: Escherichia coli.
Another test relates to Kleb. pneumoniae PCI 602. Nature of the test: antimicrobial activity (MIC), Table I. Conditions: Klebsiella pneumoniae, PCI602; Kleb. pneumoniae PCI 602; read-out: MIC.
Test [1] deals with Shigella dysenteriae JS 11910. As to the kind of experiment: antimicrobial activity (MIC), Table I. Conditions: JS11910.
The next test has as its system Sal. enteritidis 1891. As to the kind of experiment: antimicrobial activity (MIC), Table I. Conditions: Salmonella enterica; Sal. enteritidis 1891; read-out: MIC.
The next test has as its system Pro. vulgaris OX-19. As to the kind of experiment: antimicrobial activity (MIC), Table I. Conditions: Proteus vulgaris, OX19.
For another test, the system named is B. subtilis ATCC 6633. As to the kind of experiment: antimicrobial activity (MIC), Table II. Conditions: Bacillus subtilis, ATCC6633.
For a further test, the system named is B. cereus. Nature of the test: antimicrobial activity (MIC), Table II. Conditions: Bacillus cereus.
The next test relates to Staph. aureus ATCC 6538P. As to the kind of experiment: antimicrobial activity (MIC), Table II. Conditions: Staphylococcus aureus, ATCC6538P; Staph. aureus ATCC 6538P; read-out: MIC.
The next test deals with Staph. aureus KC-11. As to the kind of experiment: antimicrobial activity (MIC), Table II. Conditions: Staphylococcus aureus, KC11; Staph. aureus KC-11; read-out: MIC.
The next test deals with Staph. aureus 226. As to the kind of experiment: antimicrobial activity (MIC), Table II. Conditions: Staphylococcus aureus; Staph. aureus 226; read-out: MIC.
The subject of test [2] is Staph. epidermidis IID 886. As to the kind of experiment: antimicrobial activity (MIC), Table II. Conditions: Staphylococcus epidermidis, IID886.
Setting [3] is: E. coli K-12 ML 1410, read-out: MIC.
[4] abbreviates: Pro. vulgaris OX-19, read-out: MIC.

For the molecule `CCC1OC(=O)CC(O)C(C)C(OC2OC(C)CC(N(C)C)C2O)C(CC=O)CC(C)C(=O)C=CC(C)=CC1CN1CCCCCC1` (centres unmarked) [Example 18, 23,4'-dideoxy-23-hexamethyleneiminomycaminosyl tylonolide], the MIC in the test with Staph. aureus 193 is less than 0.2 µg/mL; in the test with Staph. aureus 209 P, less than 0.2 µg/mL; with Staph. aureus MS 9861 it was 0.78 µg/mL (≈ 1.18 µM); in the test on Sarcina lutea PCI 1001, less than 0.2 µg/mL; with B. subtilis NRRL B-558, less than 0.2 µg/mL; in the test with Coryn. bovis 1810, less than 0.2 µg/mL. Also, the MIC in the test on E. coli NIHJ came out at 0.39 µg/mL (≈ 0.588 µM); in the test with E. coli K-12, 0.78 µg/mL (≈ 1.18 µM); with E. coli K-12 R-5, 0.78 µg/mL (≈ 1.18 µM); in the test with E. coli K-12 ML 1410 (setting [3]), 0.78 µg/mL (≈ 1.18 µM); against E. coli K-12 LA 290 R 55, 0.78 µg/mL (≈ 1.18 µM); in the test on Kleb. pneumoniae PCI 602 it was 0.39 µg/mL (≈ 0.588 µM). In addition, the minimal inhibitory concentration (MIC) in test [1] was less than 0.2 µg/mL; in the test with Sal. enteritidis 1891 it was less than 0.2 µg/mL; in the test with Pro. vulgaris OX-19 (setting [4]), 0.78 µg/mL (≈ 1.18 µM).

For `CCC1OC(=O)CC(O)C(C)C(OC2OC(C)CC(N(C)C)C2O)C(CC=O)CC(C)C(=O)C=CC(C)=CC1CN(C)C` (centres unmarked) [Example 9, 23,4'-dideoxy-23-dimethylaminomycaminosyl tylonolide], the MIC in the test with Staph. aureus 193 is less than 0.2 µg/mL; in the test with Staph. aureus 209 P, less than 0.2 µg/mL; with Staph. aureus MS 9861 it was 0.39 µg/mL (≈ 0.641 µM); with Sarcina lutea PCI 1001 it was 0.2 µg/mL (≈ 0.329 µM); in the test with B. subtilis NRRL B-558, less than 0.2 µg/mL; in the test with Coryn. bovis 1810, 0.2 µg/mL (≈ 0.329 µM). Further, the MIC with E. coli NIHJ is less than 0.2 µg/mL; in the test on E. coli K-12, 0.39 µg/mL (≈ 0.641 µM); in the test with E. coli K-12 R-5, 0.39 µg/mL (≈ 0.641 µM); against E. coli K-12 ML 1410, 0.39 µg/mL (≈ 0.641 µM); against E. coli K-12 LA 290 R 55, 0.39 µg/mL (≈ 0.641 µM); in the test with Kleb. pneumoniae PCI 602, 0.2 µg/mL (≈ 0.329 µM). Moreover, the MIC in test [1] was less than 0.2 µg/mL; in the test on Sal. enteritidis 1891, less than 0.2 µg/mL; with Pro. vulgaris OX-19, 0.78 µg/mL (≈ 1.28 µM).

`CCC1OC(=O)CC(O)C(C)C(OC2OC(C)CC(N(C)C)C2O)C(CC=O)CC(C)C(=O)C=CC(C)=CC1CN(CC)CC` (centres unmarked) [Example 10, 23,4'-dideoxy-23-diethylaminomycaminosyl tylonolide]: the MIC was less than 0.2 µg/mL with Staph. aureus 193; less than 0.2 µg/mL with Staph. aureus 209 P; 0.78 µg/mL (≈ 1.22 µM) in the test on Staph. aureus MS 9861; less than 0.2 µg/mL with Sarcina lutea PCI 1001; less than 0.2 µg/mL with B. subtilis NRRL B-558; less than 0.2 µg/mL with Coryn. bovis 1810. Further, the MIC in the test with E. coli NIHJ was less than 0.2 µg/mL; in the test on E. coli K-12 it was 0.39 µg/mL (≈ 0.612 µM); with E. coli K-12 R-5, 0.39 µg/mL (≈ 0.612 µM); in the test on E. coli K-12 ML 1410 (setting [3]), 0.39 µg/mL (≈ 0.612 µM); against E. coli K-12 LA 290 R 55, 0.39 µg/mL (≈ 0.612 µM); in the test on Kleb. pneumoniae PCI 602, 0.2 µg/mL (≈ 0.314 µM). For the same molecule, the MIC is less than 0.2 µg/mL in [1], 0.39 µg/mL (≈ 0.612 µM) with Sal. enteritidis 1891 and 0.39 µg/mL (≈ 0.612 µM) in the test on Pro. vulgaris OX-19 (setting [4]).

As to `CC[C@H]1OC(=O)C[C@@H](O)[C@H](C)[C@@H](O[C@@H]2O[C@H](C)[C@@H](O[C@H]3C[C@@](C)(O)[C@@H](O)[C@H](C)O3)[C@H](N(C)C)[C@H]2O)[C@@H](CC=O)C[C@@H](C)C(=O)/C=C/C(C)=C/[C@@H]1CO[C@@H]1O[C@H](C)[C@@H](O)[C@@H](OC)[C@H]1OC` [Tylosin], the MIC was 0.78 µg/mL (≈ 0.851 µM) in the test with Staph. aureus 193; less than 0.2 µg/mL in the test on Sarcina lutea PCI 1001; 0.2 µg/mL (≈ 0.218 µM) with Coryn. bovis 1810; more than 100 µg/mL in the test with E. coli K-12; more than 100 µg/mL in the test on E. coli K-12 R-5; more than 100 µg/mL against E. coli K-12 ML 1410. Besides, the MIC was more than 100 µg/mL against E. coli K-12 LA 290 R 55; more than 100 µg/mL in the test with Pro. vulgaris OX-19; 0.78 µg/mL (≈ 0.851 µM) with B. subtilis ATCC 6633; 0.78 µg/mL (≈ 0.851 µM) in the test on B. cereus; 1.56 µg/mL (≈ 1.7 µM) in the test with Staph. aureus ATCC 6538P; 1.56 µg/mL (≈ 1.7 µM) in the test on Staph. aureus KC-11. Moreover, the MIC (in the test on Staph. aureus 226; in test [2]) was 1.56 µg/mL (≈ 1.7 µM) each time.
